# Patent US20090209527A1, “Methods for Using Rapamycin Analogues in the Treatment of Neurological Disorders” (Wyeth, priority 2008, published 2009)
# “Also recorded” adds a separate entry of the source.
# What was measured:
# pMCAO in rats = assay: Further pMCAO studies, treatment paradigms (first dose 2, 6 or 24 hours post-occlusion); type: in vivo, rat; conditions: for neurological function following pMCAO vs vehicle: 5 total doses, 3-week period; for neurological function following pMCAO, long-term: additional 3 months
# Excerpt: Rats were subjected to pMCAO and treated with either the compound of Example 2 delivered intravenously into rat tail vein [iv vehicle: 5% Tween 80, 5% PEG 400, 4% ethanol] or vehicle alone. Three different treatment paradigms were used to determine the clinical relevance of the compound of Example 2. Long-term sensorimotor deficits are monitored (tactile/proprioceptive/hindlimb placement tests) over a 3-week and 6-month period. The animals are scored on a scale of 0-12 (normal to severe neurological deficits).
# In the first study, the first dose of 10 mg/kg of the compound of Example 2 is given 2 hours post-occlusion, followed by 4 additional doses, 24 hours apart (5 total doses). Neurological deficits were monitored over a 3-week period.
# In the second study, the first dose of the compound of Example 2 is given 6 hours post-occlusion, followed by 4 additional doses, 24 hours apart (5 total doses). Neurological deficits were monitored over a 3-week period.
# These animals were maintained for an additional 3 months. During this period, neurological deficits were continually monitored, to determine whether the effect seen at 21 days is stable and long lasting.
# In the third study, the first dose of the compound of Example 2 is given 24 hours post-occlusion, followed by 4 additional doses, 24 hours apart (5 total doses). Neurological deficits were monitored over a 3-week period.
# Brains from animals in the third study were collected and processed for neuronal, regenerative, and cell death markers.
# cortical neuron cultures = assay: Cortical neuron assay (neurite outgrowth in dissociated cortical neuron cultures); type: cell-based, rat
# Protocol: Dissociated cortical neuron cultures were prepared as previously described (Liu et al., Screening of Immunophilin Ligands by Quantitative Analysis of Neurofilament Expression and Neurite Outgrowth in Cultured Neurons and Cells, J. Neurosci. Methods, 2007 Jul. 30; 163(2):310-20).
# Briefly, embryonic day 15 rat fetuses were collected and dissected in ice-cold PBS. Dissected cortices were pooled together and transferred to an enzymatic dissociation medium containing papain. After 30 minutes, the tissue was mechanically triturated with a fire-polished glass Pasteur pipette. Single-cell suspensions in complete media were seeded on poly-L-ornithine and laminin coated 96-well plates. After 24 hours, cultures were treated with various concentrations of compound for 72 hours. The cultures were then fixed and stained with an anti-tubulin primary antibody (TUJ-1) and a fluorescent-tagged secondary antibody. Neurite outgrowth was determined by using the Enhanced Neurite Outgrowth (ENO) algorithm with the Cellomics ArrayScan and expressed as average neurite length or total neurite length per cell.
# [1] = 10 mg/kg iv, first dose 6 hours post-occlusion
# [2] = 30 mg/kg iv, first dose 6 hours post-occlusion
# [3] = 30 mg/kg, third study (first dose 24 hours post-occlusion)
# [4] = 6 hour post-occlusion, dose not stated
smiles,measurement,setting,value
"CO[C@H]1C[C@@H]2CC[C@@H](C)[C@@](O)(O2)C(=O)C(=O)N2CCCC[C@H]2C(=O)O[C@H]([C@H](C)C[C@@H]2CC[C@@H](O)[C@H](OC)C2)CC(=O)[C@H](C)/C=C(\C)[C@@H](O)[C@@H](OC)C(=O)[C@H](C)C[C@H](C)[C@@H]2CC[C@H](/C=C/1C)ON2c1ccccc1 [Example 2, 9,27-dihydroxy-3-{2-[4-hydroxy-3-methoxycyclohexyl]-1-methylethyl}-10,21-dimethoxy-6,8,12,14,20,26-hexamethyl-37-phenyl-4,9,10,12,13,14,15,16,17,18,21,22,23,24,25,26,27,32,33,34,34a-henicosahydro-3H-23,27-epoxy-18,15-(epoxyimino)pyrido[2,1-c][1,4]oxazacyclohentriacontine-1,5,11,28,29(6H,31H)-pentone]",neurological function following pMCAO vs vehicle,"pMCAO in rats; 3 mg/kg iv, first dose 6 hours post-occlusion",did not improve neurological function
same,neurological function following pMCAO vs vehicle,"pMCAO in rats; 3 mg/kg iv, first dose 24 hours post-occlusion",did not improve neurological function
same,neurological function following pMCAO vs vehicle,"pMCAO in rats; 10 mg/kg iv, first dose 2 hours post-occlusion",significantly improved and accelerated neurological function; also recorded: improves neurological function
same,neurological function following pMCAO vs vehicle,pMCAO in rats; [1],significantly improved and accelerated neurological function
same,"neurological function following pMCAO, long-term",pMCAO in rats; [1],further improved neurological function and this improvement was stable and long lasting
same,neurological function following pMCAO vs vehicle,"pMCAO in rats; 10 mg/kg iv, first dose 24 hours post-occlusion",did not improve neurological function
same,neurological function following pMCAO vs vehicle,pMCAO in rats; [2],significantly improved and accelerated neurological function
same,"neurological function following pMCAO, long-term",pMCAO in rats; [2],further improved neurological function and this improvement was stable and long lasting
same,neurological function following pMCAO vs vehicle,"pMCAO in rats; 30 mg/kg iv, first dose 24 hours post-occlusion",significantly improved and accelerated neurological function
same,apoptotic cell death (TUNEL labeling) in the hippocampus,pMCAO in rats; [3],reducing apoptotic cell death
same,neuroprotection (Neu-N positive cells) in the hippocampus,pMCAO in rats; [3],promotes neuroprotection
same,neuroregeneration (GAP-43 labeling) in the cortex,pMCAO in rats; [3],promotes neuroregeneration in the cortex
same,neurological function following pMCAO (3-weeks) in rats (FIG. 12),pMCAO in rats; [4],improves neurological function
same,neurological function following pMCAO (3 months) in rats (FIG. 13),pMCAO in rats; [4],improves neurological function
same,neurological function following pMCAO (3 weeks) in rats (FIG. 14),"pMCAO in rats; 24 hour post-occlusion, dose not stated",improves neurological function
same,neuroregeneration in the hippocampus (FIG. 15),pMCAO in rats; dose not stated,promotes neuroregeneration in the hippocampus
same,therapeutic window (time of first administration after onset of stroke),pMCAO in rats; rat models of ischemic stroke,at least 24 hours
same,EC50,"cortical neuron cultures; Rattus norvegicus, Cortical neurone, 72 hours treatment, neurite outgrowth, read-out: EC50 in cortical neuron assays",< 1 µM
same,neuronal survival and neurite outgrowth in cultured cortical neurons,cortical neuron cultures; summary statement,promotes neuronal survival and neurite outgrowth
